# Source: patent publication US10450306B2, “Isoxazole analogs as FXR agonists and methods of use thereof” (Enanta Pharmaceuticals, Inc., priority 2016, dated 2019)
# pEC50: −log10 of the molar value.
# Target: T1, human FXR (NR1H4) (Homo sapiens, UniProt Q96RI1)
# T1 construct: host or cells: CHO (Chinese hamster ovary) reporter cells
# T1 sequence (Q96RI1 1-486): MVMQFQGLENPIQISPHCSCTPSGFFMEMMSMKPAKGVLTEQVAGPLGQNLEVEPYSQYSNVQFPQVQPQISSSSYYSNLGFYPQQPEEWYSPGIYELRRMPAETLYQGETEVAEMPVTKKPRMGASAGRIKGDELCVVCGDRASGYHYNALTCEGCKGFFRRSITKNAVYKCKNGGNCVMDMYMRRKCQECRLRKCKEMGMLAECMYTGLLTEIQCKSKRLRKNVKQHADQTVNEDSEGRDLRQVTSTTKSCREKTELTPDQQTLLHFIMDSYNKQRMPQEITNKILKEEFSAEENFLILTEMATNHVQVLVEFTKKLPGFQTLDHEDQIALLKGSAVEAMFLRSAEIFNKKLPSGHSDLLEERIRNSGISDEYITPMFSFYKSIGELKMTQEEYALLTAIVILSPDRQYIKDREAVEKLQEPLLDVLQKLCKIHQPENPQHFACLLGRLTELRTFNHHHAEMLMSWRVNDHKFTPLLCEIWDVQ
# Experiment: Human FXR (NR1H4) Assay: Gal4 promoter driven luciferase reporter transactivation in CHO cells (Indigo Bioscience kit IB00601); for Efficacy (%): efficacy normalized to CDCA set as 100%
# Assay type: cell-based
# Details: for Emax: CHO, read-out: Efficacy (%); for pEC50: Human FXR (NR1H4) reporter assay, potency ranges
# Text: Human FXR (NR1H4) Assay Determination of a ligand mediated Gal4 promoter driven transactivation to quantify ligand binding mediated activation of FXR. FXR Reporter Assay kit purchased from Indigo Bioscience (Catalogue number: IB00601) to determine the potency and efficacy of compound developed by Enanta that can induce FXR activation. The principle application of this reporter assay system is to quantify functional activity of human FXR. The assay utilizes non-human mammalian cells, CHO (Chinese hamster ovary) cells engineered to express human NR1H4 protein (referred to as FXR). Reporter cells also incorporate the cDNA encoding beetle luciferase which catalyzes the substrates and yields photon emission. Luminescence intensity of the reaction is quantified using a plate-reading luminometer, Envision. Reporter Cells include the luciferase reporter gene functionally linked to an FXR responsive promoter. Thus, quantifying changes in luciferase expression in the treated reporter cells provides a sensitive surrogate measure of the changes in FXR activity. […] The assay is according to the manufacturer's instructions. In brief, the assay was performed in white, 96 well plates using final volume of 100 ul containing cells with different doses of compounds. Retrieve Reporter Cells from −80° C. storage. Perform a rapid thaw of the frozen cells by transferring a 10 ml volume of 37° C. cell recovery medium into the tube of frozen cells. Recap the tube of Reporter Cells and immediately place it in a 37° C. water bath for 5-10 minutes. Retrieve the tube of Reporter Cell Suspension from the water bath. Sanitize the outside surface of the tube with a 70% alcohol swab, and then transfer it into the cell culture hood. Dispense 90 μl of cell suspension into each well of the 96-well Assay Plate. Transfer the plate into 37° C. incubator, allowing the cells adherent to the bottom of the well. Dilute compounds in Dilution Plate (DP), and administrate to cells at Assay Plate (AP). DMSO content of the samples was kept at 0.2%. Cells were incubated for additional 22 hours before luciferase activities were measured. Thirty minutes before intending to quantify FXR activity, remove Detection Substrate and Detection Buffer from the refrigerator and place them in a low-light area so that they may equilibrate to room temperature. Remove the plate's lid and discard all media contents by ejecting it into an appropriate waste container. Gently tap the inverted plate onto a clean absorbent paper towel to remove residual droplets. Cells will remain tightly adhered to well bottoms. Add 100 ul of luciferase detection reagent to each well of the assay plate. Allow the assay plate to rest at room temperature for at least 5 minutes following the addition of LDR. Set the instrument (Envision) to perform a single 5 second “plate shake” prior to reading the first assay well. Read time may be 0.5 second (500 mSec) per well.
SMILES,Emax [%],pEC50
COc1cc(C(=O)NCCS(=O)(=O)O)cc2sc(N3C4CCC3CC(NCc3c(-c5c(Cl)cccc5Cl)noc3C3CC3)C4)nc12 (centres unmarked) [Example 200-12],16.5,7.00 to 9.00
O=C(NS(=O)(=O)N1CCCC1)c1cc(F)c2nc(N3C4CCC3CC(NCc3c(-c5c(Cl)cccc5Cl)noc3C3CC3)C4)sc2c1 (centres unmarked) [Example 400-1],210,7.00 to 9.00
COC(=O)c1ccc2nc(N3C4CCC3CC(NCc3c(-c5c(Cl)cccc5Cl)noc3C3CC3)C4)c(OC)nc2c1 (centres unmarked) [Example 197],115,6.00 to 7.00
CC(C)Oc1cc(C(=O)NS(=O)(=O)C2(C)CC2)cc2sc(N3CCC(NCc4c(-c5c(Cl)cccc5Cl)noc4C4CC4)CC3)nc12 [Example 400-4],97.5,7.00 to 9.00
CC1(S(=O)(=O)NC(=O)c2cc(F)c3nc(N4CCC(NCc5c(-c6ccccc6OC(F)(F)F)noc5C5CC5)CC4)sc3c2)CC1 [Example 900-4],84.8,< 6.00
O=C(O)c1ccc2nc(N3C4CCC3CC(NCc3c(-c5ccccc5OC(F)(F)F)noc3C3CC3)C4)sc2c1 (centres unmarked) [Example 402],112,7.00 to 9.00
COc1cc(C(=O)O)cc2sc(N3C4CCC3CC(NCc3c(-c5c(Cl)cccc5Cl)noc3C3CC3)C4)nc12 (centres unmarked) [Example 6],153,> 9.00
O=C(O)c1cc(C2CC2)c2nc(N3C4CCC3CC(NCc3c(-c5c(F)cccc5F)noc3C3CC3)C4)sc2c1 (centres unmarked) [Example 1419],107,7.00 to 9.00
"CN(C)S(=O)(=O)NC(=O)c1ccc2nc(N3C4CCC3CC(NCc3c(-c5c(Cl)cccc5Cl)noc3C3CC3)C4)sc2c1 (single isomer, unassigned) [Example 225]",126,> 9.00
O=C(O)c1ccc2nc(N3C4CCC3CC(NCc3c(-c5ccccc5C(F)(F)F)noc3C3CC3)C4)oc2c1 (centres unmarked) [Example 1418],102,7.00 to 9.00
COC(=O)c1cc(F)c2nc(N3CCC(NCc4c(-c5ccccc5OC(F)(F)F)noc4C4CC4)CC3)sc2c1 [Example 641],40,6.00 to 7.00
O=C(O)c1cc(F)c2nc(N3CCC(NCc4c(-c5c(Cl)cccc5Cl)noc4C4CC4)CC3)sc2c1 [Example 200-6],86.5,7.00 to 9.00
COC(=O)c1cc(OC(C)C)c2nc(N3CCC(NCc4c(-c5ccccc5OC(F)(F)F)noc4C4CC4)CC3)sc2c1 [Example 639],13,6.00 to 7.00
CC1(S(=O)(=O)NC(=O)c2cc3sc(N4C5CCC4CC(NCc4c(-c6c(Cl)cccc6Cl)noc4C4CC4)C5)nc3cc2-c2ccccc2)CC1 (centres unmarked) [Example 400-32],116,> 9.00
COC(=O)c1cc(F)c2nc(N3C4CCC3CC(NCc3c(-c5ccccc5C(F)(F)F)noc3C3CC3)C4)sc2c1 (centres unmarked) [Example 1407],92.5,7.00 to 9.00
Cc1c(C(=O)NS(=O)(=O)C2(C)CC2)ccc2nc(N3C4CCC3CC(NCc3c(-c5c(Cl)cccc5Cl)noc3C3CC3)C4)sc12 (centres unmarked) [Example 400-13],83.3,7.00 to 9.00
CC1(S(=O)(=O)NC(=O)c2ccc3nc(N4C5CCC4CC(NCc4c(-c6c(Cl)cccc6Cl)noc4C4CC4)C5)oc3c2)CC1 (centres unmarked) [Example 302],62,7.00 to 9.00
O=C(O)c1cccc(N2CCN(Cc3c(-c4c(Cl)cccc4Cl)noc3C3CC3)CC2)c1 [Example 188],15,< 6.00
CC(C)(C)S(=O)(=O)NC(=O)c1ccc2nc(N3C4CCC3CC(NCc3c(-c5c(Cl)cccc5Cl)noc3C3CC3)C4)sc2c1 (centres unmarked) [Example 240],245,> 9.00
COC(=O)c1cnc2nc(N3C4CCC3CC(NCc3c(-c5c(Cl)cccc5Cl)noc3C3CC3)C4)sc2n1 (centres unmarked) [Example 200-17],51.5,7.00 to 9.00

SMILES,Emax [%],pEC50
COC(=O)c1cc(OC)c2nc(N3C4CCC3CC(NCc3c(-c5c(Cl)cccc5Cl)noc3C3CC3)C4)sc2c1 (centres unmarked) [Example 5],145,7.00 to 9.00
COC(=O)c1cc(OC(C)C)c2nc(N3C4CCC3CC(NCc3c(-c5ccccc5OC(F)(F)F)noc3C3CC3)C4)sc2c1 (centres unmarked) [Example 413],118,7.00 to 9.00
COC(=O)c1cc(OC(C)C)c2nc(N3C4CCC3CC(NCc3c(-c5ccccc5C(F)(F)F)noc3C3CC3)C4)sc2c1 (centres unmarked) [Example 1403],119,7.00 to 9.00
COC(=O)c1cc(OC(C)C)c2nc(N3CCC(NCc4c(-c5c(Cl)cccc5Cl)noc4C4CC4)CC3)sc2c1 [Example 200-3],35,6.00 to 7.00
O=C(NS(=O)(=O)C1CC1)c1ccc2nc(N3C4CCC3CC(NCc3c(-c5c(F)cccc5F)noc3C3CC3)C4)sc2c1 (centres unmarked) [Example 1417],69,7.00 to 9.00
CN(Cc1c(-c2c(Cl)cccc2Cl)noc1C1CC1)C1CCN(c2nc3ccc(C(=O)O)cc3s2)CC1 [Example 186],45,< 6.00
COC(=O)c1cc(OC(F)F)c2nc(N3C4CCC3CC(NCc3c(-c5c(Cl)cccc5Cl)noc3C3CC3)C4)sc2c1 (centres unmarked) [Example 189],73,7.00 to 9.00
"O=C(O)c1ccc2nc(N3[C@@H]4CC[C@H]3C[C@@H](NCc3c(-c5c(Cl)cccc5Cl)noc3C3CC3)C4)sc2c1 [Example 2, 2-((1R,3R,5S)-3-(((5-cyclopropyl-3-(2,6-dichlorophenyl)isoxazol-4-yl)methyl)amino)-8-azabicyclo[3.2.1]octan-8-yl)benzo[d]thiazole-6-carboxylic acid]",244,7.00 to 9.00
CC(C)(C)CS(=O)(=O)NC(=O)c1ccc2nc(N3C4CCC3CC(NCc3c(-c5c(Cl)cccc5Cl)noc3C3CC3)C4)sc2c1 (centres unmarked) [Example 239],201,7.00 to 9.00
O=C(O)c1ccc2nc(N3CCC(NCc4c(-c5ccccc5OC(F)(F)F)noc4C4CC4)CC3)sc2c1 [Example 638],107,6.00 to 7.00
CC(C)(C)Oc1ccc(S(=O)(=O)NC(=O)OCc2ccc3nc(N4C5CCC4CC(NCc4c(-c6c(Cl)cccc6Cl)noc4C4CC4)C5)sc3c2)cc1 (centres unmarked) [Example 153],113,7.00 to 9.00
[2H]C([2H])([2H])C1(S(=O)(=O)NC(=O)c2cc(F)c3nc(N4C5CCC4CC(NCc4c(-c6c(Cl)cccc6Cl)noc4C4CC4)C5)sc3c2)CC1 (centres unmarked) [Example 296],184,> 9.00
CCOC(=O)c1ccc2nc(N(C)C3CCC(OCc4c(-c5c(Cl)cccc5Cl)noc4C4CC4)CC3)sc2c1 (centres unmarked) [Example 169],38,< 6.00
CC(C)Oc1cc(C(=O)O)cc2sc(N3CCC(NCc4c(-c5c(Cl)cccc5Cl)noc4C4CC4)CC3)nc12 [Example 200-4],106,7.00 to 9.00
CC1(S(=O)(=O)NC(=O)c2ccc3nc(N4C5CCC4CC(NCc4c(-c6c(F)cccc6F)noc4C4CC4)C5)sc3c2)CC1 (centres unmarked) [Example 1421],101,7.00 to 9.00
O=C(NS(=O)(=O)C1CC1)c1cc(F)c2nc(N3CCC(NCc4c(-c5ccccc5OC(F)(F)F)noc4C4CC4)CC3)sc2c1 [Example 900-3],44.8,6.00 to 7.00
CC1(S(=O)(=O)NC(=O)c2cc(C3CC3)c3nc(N4C5CCC4CC(NCc4c(-c6ccccc6OC(F)(F)F)noc4C4CC4)C5)sc3c2)CC1 (centres unmarked) [Example 900-9],122,> 9.00
Cc1cc2nc(N3C4CCC3CC(NCc3c(-c5c(Cl)cccc5Cl)noc3C3CC3)C4)sc2cc1C(=O)O (centres unmarked) [Example 194],81,> 9.00
O=C(NS(=O)(=O)C1CC1)c1cc(C2CC2)c2nc(N3C4CCC3CC(NCc3c(-c5ccccc5C(F)(F)F)noc3C3CC3)C4)sc2c1 (centres unmarked) [Example 1414],89.5,> 9.00
CC1(S(=O)(=O)NC(=O)c2cc3sc(N4C5CCC4CC(NCc4c(-c6c(Cl)cccc6Cl)noc4C4CC4)C5)nc3cc2F)CC1 (centres unmarked) [Example 400-22],83.2,> 9.00
